≈ marks a conversion by molar mass, not a printed value. Where two headings read alike, the source gives them in different places.
Experiments:
[1] = tested on: axenic amastigotes of L. amazonensis (strain MHOM/BR/76/LTB-012); assay: microbe, parasite or virus in culture; settings: Leishmania amazonensis
[2] = tested on: VERO cells; assay: Cytotoxicity on VERO cells (MTT), anti-T. cruzi study; settings: Chlorocebus sabaeus, Vero, read-out: IC50 VERO, Table 3
[3] = as above; settings: African green monkey, VERO cells
[4] = tested on: Trypanosoma cruzi (Tulahuen C4); assay: In vitro anti-T. cruzi activity (β-galactosidase CPRG colorimetric assay in VERO monolayer); assay type: cell-based; settings: for Selectivity Index Lab B: IC50, VERO/IC50, T. cruzi
[5] = tested on: axenic amastigotes of L. amazonensis (strain MHOM/BR/76/LTB-012); settings: Table 8b
[6] = Toxicity to peritoneal macrophages (Trypan Blue count); assay type: cell-based, BALB/C mouse; settings: BALB/C, mouse, Cytotoxicity Macrophages IC50
Method: Peritoneal macrophages were prepared as follows. Non-inflammatory macrophages (10^6) were collected from each BALB/C mouse. The cells adhered at 37° C. after 2 h under 5% CO2 in a CO2 incubator. The plates were then rinsed two to three times with 0.5 mL of RPMI+buffer MOPS without fetal calf serum to eliminate non-adhering cells. The supernatant on the plates was replaced by fresh medium (RPMI+glutamine+FCS+antibiotics), 0.5 mL of medium per well. To determine the toxicity of the compounds to macrophages, dilutions of compounds were added on a part of the macrophages prepared above. […] The medium was then removed and 1 μL of sterile Trypan Blue was added. Cover glasses N° 1 were left where cells were plated and then the number of macrophages in a microscope was determined with a haemocytometer. All experiments were performed in triplicate.

[7] = tested on: 3T3 cells; assay: Cell growth inhibition bioassay (sulforhodamine B); assay type: cell-based, mouse; settings: Mus musculus, NIH3T3; 48 h, SRB; read-out: GI50 in indicated cell line: 3T3
Method: (§1) The cytotoxicity of compounds was assayed as follows. […] Appropriate solvent controls were tested for comparison. The percent inhibition of cell growth relative to the control was evaluated colorimetrically using a sulforhodamine B dye by comparison to the control. The calorimetric procedure followed that published in Skehan et al., J. Nat. Cancer Inst., […], pp. 1107-1112 (1990) and Boyd & Paull, Drug Dev. Res., Vol. 34, pp. 91-109 (1995). […] The cell lines are: 3T3 cells are BALB/3T3 clone A31 embryonic mouse fibroblast cells; H460 cells are human large cell lung cancer cells; DU145 cells are human prostate carcinoma cells; MCF-7 cells are human breast adenocarcinoma cells; M-14 cells are human melanoma cells; HT-29 cells are human colon adenocarcinoma cells; PC3 cells are human prostate adenocarcinoma cells; K562 cells are human chronic myelogenous leukemia cells; and VERO cells are African Green Monkey kidney epithelial cells.

[8] = tested on: VERO cells; assay: Cell growth inhibition bioassay (sulforhodamine B); assay type: cell-based, African Green Monkey; settings: Chlorocebus sabaeus, Vero; 48 h, SRB; read-out: GI50 in indicated cell line: VERO
Method: as §1

[9] = tested on: M. tuberculosis H37Rv; assay: Conventional aerobic (MABA) culture assay, luminescence MIC; assay type: cell-based, Mycobacterium tuberculosis; settings: Mycobacterium tuberculosis, 168 h; aerobic, 7 days, H37Rv
[10] = tested on: MCF-7 cells; assay: Cell growth inhibition bioassay (sulforhodamine B); assay type: cell-based, human; settings: Homo sapiens, MCF7; 48 h, SRB; read-out: GI50 in indicated cell line: MCF-7
Method: as §1

[11] = tested on: H460 cells; assay: Cell growth inhibition bioassay (sulforhodamine B); assay type: cell-based, human; settings: Homo sapiens, NCI-H460; 48 h, SRB; read-out: GI50 in indicated cell line: H460
Method: as §1

[12] = tested on: DU145 cells; assay: Cell growth inhibition bioassay (sulforhodamine B); assay type: cell-based, human; settings: Homo sapiens, DU-145; 48 h, SRB; read-out: GI50 in indicated cell line: DU145
Method: as §1

[13] = tested on: HT-29 cells; assay: Cell growth inhibition bioassay (sulforhodamine B); assay type: cell-based, human; settings: Homo sapiens, HT-29; 48 h, SRB; read-out: GI50 in indicated cell line: HT-29
Method: as §1

[14] = tested on: K562 cells; assay: Cell growth inhibition bioassay (sulforhodamine B); assay type: cell-based, human; settings: Homo sapiens, K562; 48 h, SRB; read-out: GI50 in indicated cell line: K562
Method: as §1

[15] = tested on: M-14 cells; assay: Cell growth inhibition bioassay (sulforhodamine B); assay type: cell-based, human; settings: Homo sapiens, M14; 48 h, SRB; read-out: GI50 in indicated cell line: M-14
Method: as §1

[16] = Trypanosoma cruzi, TULAHUEN, Vero, Table 3, read-out: IC50 T. cruzi
[17] = Trypanosoma cruzi, TULAHUEN, Vero, Lab B, read-out: T. cruzi IC50 Lab B
[18] = Trypanosoma cruzi, TULAHUEN, Vero, Lab A, read-out: T. cruzi IC50 Lab A

Row | SMILES | Selectivity Index [5] | IC50 at 48 h [6] | IC50 ([1]; read-out: L. amazonensis IC50) | GI50 [7] | GI50 [8] | IC50 ([3]; Cytotoxicity VERO Lab B, Lab B) | MIC [9] | GI50 [10] | GI50 [11] | GI50 [12] | GI50 [13] | GI50 [14] | GI50 [15] | Selectivity Index Lab B ([4]; Lab B) | IC50 [4, 17] | IC50 [4, 18] | other results
1 | C=CCOc1cc(OC)c(C(=O)/C=C/c2ccc(O)cc2)c(OCC=C)c1 [Compound I-09, (2E)-1-[2-Methoxy-4,6-bis(2-propenyloxy)phenyl]-3-(4-hydroxyphenyl)-2-propen-1-one] | – | – | – | – | – | – | – | – | – | – | – | – | – | – | – | – | IC50 ([1]; 72 h, read-out: IC50 L. amazonensis): 85.2 µM; IC50 [2]: 76.4 µM; IC50 ([3]; IC50 - VERO Cytotoxicity, Table 2): 28 µg/mL (≈ 76.4 µM); inhibition at 10 µg/mL ([4]; Trypanosoma cruzi, TULAHUEN, Vero, 120 h, 10 μg/mL of each compound, 120 hours, read-out: T. cruzi Inhib. (%)): 52.6%; IC50 ([4]; Trypanosoma cruzi, TULAHUEN, Vero, Table 2, read-out: IC50 - T. cruzi): 7.44 µg/mL; IC50 [4, 16]: 20.3 µM
2 | C(=N/Nc1ncnc2sc3c(c12)CCCC3)/c1cccc2ccccc12 [II-02] | 1.3 | 6 µM | 4.6 µM | 6 µg/mL (≈ 16.7 µM) | 4.3 µg/mL (≈ 12 µM) | 1 µg/mL (≈ 2.79 µM) | > 100 µg/mL | 2.3 µg/mL (≈ 6.42 µM) | 7.1 µg/mL (≈ 19.8 µM) | 8.6 µg/mL (≈ 24 µM) | 2.2 µg/mL (≈ 6.14 µM) | 1.7 µg/mL (≈ 4.74 µM) | 6.6 µg/mL (≈ 18.4 µM) | 0.2 | 4.7 µg/mL | – | –
3 | C(=N/Nc1ncnc2sc3c(c12)CCCC3)/c1ccc2ccccc2c1 [II-03] | 0.4 | 5.7 µM | 14 µM | 10 µg/mL (≈ 27.9 µM) | 2.9 µg/mL (≈ 8.09 µM) | 5 µg/mL (≈ 13.9 µM) | > 100 µg/mL | 3.3 µg/mL (≈ 9.21 µM) | 7.4 µg/mL (≈ 20.6 µM) | 8.7 µg/mL (≈ 24.3 µM) | 6.9 µg/mL (≈ 19.2 µM) | 2.2 µg/mL (≈ 6.14 µM) | 12.6 µg/mL (≈ 35.1 µM) | 1.1 | 4.8 µg/mL | – | –
4 | CC(C)c1ccc(/C=N\Nc2ncnc3sc4c(c23)CCCC4)cc1 [II-07] | 2.3 | 3 µM | 1.3 µM | 3.3 µg/mL (≈ 9.42 µM) | 2.1 µg/mL (≈ 5.99 µM) | 1 µg/mL (≈ 2.85 µM) | > 100 µg/mL | 1.8 µg/mL (≈ 5.14 µM) | 2.1 µg/mL (≈ 5.99 µM) | 3.8 µg/mL (≈ 10.8 µM) | 2.1 µg/mL (≈ 5.99 µM) | 1.4 µg/mL (≈ 3.99 µM) | 6.2 µg/mL (≈ 17.7 µM) | 0.5 | 1.8 µg/mL | 0.9 µg/mL | –
5 | CC(C)(C)c1ccc(/C=N\Nc2ncnc3sc4c(c23)CCCC4)cc1 [II-08] | 3.8 | 2.4 µM | 0.6 µM | 8.4 µg/mL (≈ 23 µM) | 2.5 µg/mL (≈ 6.86 µM) | 5 µg/mL (≈ 13.7 µM) | > 100 µg/mL | 2.3 µg/mL (≈ 6.31 µM) | 2.3 µg/mL (≈ 6.31 µM) | 8 µg/mL (≈ 21.9 µM) | 5.7 µg/mL (≈ 15.6 µM) | 2.3 µg/mL (≈ 6.31 µM) | 11 µg/mL (≈ 30.2 µM) | 1.2 | 4.1 µg/mL | 1.3 µg/mL | –
6 | C(=N/Nc1ncnc2sc3c(c12)CCCC3)/c1ccc2c(c1)OCO2 [II-12] | 0.6 | 5.7 µM | 10.4 µM | > 93.8 µg/mL | > 93.8 µg/mL | 6 µg/mL (≈ 17 µM) | > 100 µg/mL | 41.4 µg/mL (≈ 117 µM) | > 93.8 µg/mL | > 93.8 µg/mL | > 93.8 µg/mL | > 93.8 µg/mL | > 93.8 µg/mL | 0.7 | 8 µg/mL | 2.3 µg/mL | –
7 | COc1ccc(/C=N\Nc2ncnc3sc4c(c23)CCCC4)c(OC)c1 [II-13] | 4.3 | 53 µM | 12.2 µM | 7.3 µg/mL (≈ 19.8 µM) | 17.7 µg/mL (≈ 48 µM) | 12 µg/mL (≈ 32.6 µM) | > 100 µg/mL | 7.8 µg/mL (≈ 21.2 µM) | 10.9 µg/mL (≈ 29.6 µM) | 7.4 µg/mL (≈ 20.1 µM) | 7.4 µg/mL (≈ 20.1 µM) | 2.9 µg/mL (≈ 7.87 µM) | 34.8 µg/mL (≈ 94.4 µM) | 1.8 | 6.8 µg/mL | – | –
8 | C=CCOc1cc(/C=N\Nc2ncnc3sc4c(c23)CCCC4)cc(OCC=C)c1Br [II-17] | 0.7 | 1.7 µM | 2.6 µM | < 0.98 µg/mL | 2.2 µg/mL (≈ 4.4 µM) | 3 µg/mL (≈ 6.01 µM) | > 100 µg/mL | 1.9 µg/mL (≈ 3.8 µM) | 1.6 µg/mL (≈ 3.2 µM) | < 0.98 µg/mL | 1.9 µg/mL (≈ 3.8 µM) | 2 µg/mL (≈ 4 µM) | 6.4 µg/mL (≈ 12.8 µM) | 0.4 | 7.7 µg/mL | 10.2 µg/mL | –
9 | C(=N/Nc1ncnc2sc3c(c12)CCCC3)/c1ccncc1 [II-20] | 0.7 | 47.7 µM | 72 µM | 25.7 µg/mL (≈ 83.1 µM) | 38.3 µg/mL (≈ 124 µM) | – | > 100 µg/mL | 26 µg/mL (≈ 84 µM) | 52.4 µg/mL (≈ 169 µM) | 26 µg/mL (≈ 84 µM) | 47.3 µg/mL (≈ 153 µM) | 33.8 µg/mL (≈ 109 µM) | > 62.5 µg/mL | – | – | – | –
10 | c1ccc(C(=NNc2ncnc3sc4c(c23)CCCC4)c2ccccc2)cc1 [II-49] | 0.9 | 59.8 µM | 70.1 µM | > 62.5 µg/mL | > 62.5 µg/mL | – | > 100 µg/mL | > 62.5 µg/mL | > 62.5 µg/mL | > 62.5 µg/mL | > 62.5 µg/mL | > 62.5 µg/mL | > 62.5 µg/mL | – | – | – | –
11 | CC1CS(=O)(=O)CCN1/N=C/c1ccc([N+](=O)[O-])o1 (stereo not drawn) [Nifurtimox, reference compound] | – | – | – | – | – | – | – | – | – | – | – | – | – | – | – | – | IC50 [2]: 80.1 µM; IC50 [4, 16]: 0.52 µM

From patent publication US9061984B2 (University of Louisville Research Foundation, Inc., priority 2008, dated 2015)
